Assay results as given in article PMC6522912, “Evaluation of the published kinase inhibitor set to identify multiple inhibitors of bacterial ATP-dependent mur ligases” (Journal of Enzyme Inhibition and Medicinal Chemistry, 2019).

Key:
E. coli MurF = E. coli MurF (Escherichia coli, UniProt P11880); assay: biochemical
[1] = Solubility observations in assay mixtures and NMR buffer; format: physicochemical; conditions: NMR buffer, MurD:ligand molar ratio 1:8, 0.07 mM MurD
MurD = MurD (Escherichia coli, UniProt P14900); assay: 1H/13C HSQC NMR study of ligand binding; conditions: chemical shift perturbations, without and with 2 mM AMP-PCP
MurD, sequence (P14900 whole entry): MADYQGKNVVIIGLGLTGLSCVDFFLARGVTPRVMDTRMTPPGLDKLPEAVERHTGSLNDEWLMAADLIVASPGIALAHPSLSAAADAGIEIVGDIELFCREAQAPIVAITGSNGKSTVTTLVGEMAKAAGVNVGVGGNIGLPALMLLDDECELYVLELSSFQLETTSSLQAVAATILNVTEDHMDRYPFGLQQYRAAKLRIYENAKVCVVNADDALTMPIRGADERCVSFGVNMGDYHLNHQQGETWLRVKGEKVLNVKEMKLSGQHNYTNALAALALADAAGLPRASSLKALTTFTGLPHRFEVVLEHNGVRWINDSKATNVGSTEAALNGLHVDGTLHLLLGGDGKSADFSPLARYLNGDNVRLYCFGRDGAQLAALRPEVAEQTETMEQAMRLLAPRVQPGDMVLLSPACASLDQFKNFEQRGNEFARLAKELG
Method: The nuclear magnetic resonance (NMR) spectra were recorded at 25 °C on a spectrometer (DirectDrive 800 MHz; Varian, Slovenian NMR centre at National Institute of Chemistry) equipped with a cryoprobe. The pulse sequences provided in the Varian BioPack library of pulse programmes was used. The samples were prepared in 90% H2O/10% DMSO-d6 buffer containing 20 mM HEPES, 7 mM (NH4)2SO4, 3.5 mM MgCl2, and 2 mM dithiothreitol, pH 7.2. Here, 0.07 mM MurD that was selectively labelled with ^13 C at the methyl groups of Ile (δ1 only), Val and Leu was used. The protein was titrated using compound 1 in MurD:ligand molar ratios of 0.5, 1, 2, 4 and 8, without and with 2 mM β,γ-methyleneadenosine 5'-triphosphate (AMP–PCP). […] The final concentration of DMSO-d6 was 12% (v/v). The variation of DMSO from 10 to 12% (v/v) affects the chemical shift perturbations by <0.02 ppm[31].
The heteronuclear single quantum coherence (HSQC) spectra for ^1H/^13C were acquired with 1024 data points in t2, 32 scans, 64 complex points in t1, and relaxation delay of 1 s. […] The spectra were processed and analysed with the Felix 2007 software package (Felix NMR Inc., Laboratory of Biomolecular Structure at National Institute of Chemistry). […] The combined ^1H/^13C chemical shift perturbations (Δδ) were calculated from the ^1H and ^13C chemical shift perturbations using Equation (1)[32]: (1) Δδ=((Δδ^1H)^2+(0.252×Δδ^13C)^2)^1/2. […]

MurD from E. coli = MurD from E. coli (Escherichia coli, UniProt P14900); assay: Steady-state kinetic analysis on MurD; format: biochemical; conditions: for Ki: Ki (µM)
MurD from E. coli, sequence (P14900 whole entry): as above
Method: For compound 1, Ki values were determined against MurD from E. coli. Ki determinations were performed under similar conditions to those described for the MurD inhibition assay, where different concentration of one substrate and a fixed concentration of the other two were used. First, the concentration of UMA was varied (10, 20, 40, 80 µM) at fixed ATP (400 µM) and D-Glu (100 µM), then the concentration of D-Glu was varied (50, 100, 200, 400 µM) at fixed ATP (400 µM) and UMA (80 µM), and finally, the concentration of ATP was varied (100, 200, 400, 800 µM) at fixed UMA (80 µM) and D-Glu (100 µM). The concentrations of 1 were 0, 15, 30, 60, 90, 120, 180 and 250 µM. After a 15 min incubation, 100 µM Biomol green reagent was added, and the absorbance was read at 650 nm after 5 min. All of the experiments were run in triplicate. The data were analysed using the SigmaPlot 12.0 software. The initial velocities were fitted to competitive, non-competitive, uncompetitive and mixed enzyme inhibition. The Ki and mode of inhibition from the best ranking model were used, as provided by the software.

E. coli MurC = E. coli MurC (Escherichia coli, UniProt P17952); assay: Malachite green inhibition assay, MurC; format: biochemical
E. coli MurC, sequence (P17952 whole entry): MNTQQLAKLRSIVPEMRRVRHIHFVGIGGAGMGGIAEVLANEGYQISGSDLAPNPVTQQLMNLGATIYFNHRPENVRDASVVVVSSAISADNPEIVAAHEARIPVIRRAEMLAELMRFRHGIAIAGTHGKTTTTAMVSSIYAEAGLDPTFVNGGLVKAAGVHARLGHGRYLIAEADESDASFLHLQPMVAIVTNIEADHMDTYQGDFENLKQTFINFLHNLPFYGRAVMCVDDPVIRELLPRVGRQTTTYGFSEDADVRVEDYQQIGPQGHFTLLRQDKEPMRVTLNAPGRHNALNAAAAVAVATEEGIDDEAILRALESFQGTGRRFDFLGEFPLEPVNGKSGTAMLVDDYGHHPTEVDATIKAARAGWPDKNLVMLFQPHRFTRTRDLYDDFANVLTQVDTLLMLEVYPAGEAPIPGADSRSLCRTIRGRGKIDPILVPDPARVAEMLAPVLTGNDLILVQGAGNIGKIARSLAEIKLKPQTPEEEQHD

E. coli MurD = E. coli MurD (Escherichia coli, UniProt P14900); assay: biochemical
E. coli MurD, sequence (P14900 whole entry): as the sequence (P14900 whole entry) above
Procedure, shortened: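 Reaction 15 min at 37 °C, then phosphate detected with Biomol green at 650 nm. Values are residual activity versus 5% DMSO carrier controls.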

[2] = Table S3, aza stilbene compounds
[3] = ligand efficiency, LE = (1.37 × pIC50)/HAC
[4] = residual activity at 100 µM compound, Table 1

E. coli MurF, sequence (P11880 whole entry): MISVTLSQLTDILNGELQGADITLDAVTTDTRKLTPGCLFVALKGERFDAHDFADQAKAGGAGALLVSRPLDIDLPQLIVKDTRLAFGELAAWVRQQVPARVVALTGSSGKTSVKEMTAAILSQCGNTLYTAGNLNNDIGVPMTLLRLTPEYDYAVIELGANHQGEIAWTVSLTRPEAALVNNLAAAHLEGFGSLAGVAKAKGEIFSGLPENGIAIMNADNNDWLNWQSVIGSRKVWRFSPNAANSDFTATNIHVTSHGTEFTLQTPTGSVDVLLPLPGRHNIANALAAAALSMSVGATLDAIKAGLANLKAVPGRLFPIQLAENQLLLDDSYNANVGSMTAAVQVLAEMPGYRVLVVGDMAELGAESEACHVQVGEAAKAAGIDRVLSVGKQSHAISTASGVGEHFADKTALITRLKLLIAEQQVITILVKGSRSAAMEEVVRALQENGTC

Compound: Cc1cc(-c2ccco2)cc(C)c1/C=C/c1cncc(-c2nn[nH]n2)c1 [Compound 1]
- remaining activity at 100 µM (E. coli MurF; 0.25 h, Table S1, PKIS screening, read-out: RA [%] at 100 µM MurF): 26%
- IC50 (E. coli MurF; Table 1): 59 µM
- RA (%) MurF (E. coli MurF; [2]): 26%
- LE (MurF) (E. coli MurF; [3]): 0.22
- MurF RA [%] (E. coli MurF; [4]): 26%
- solubility [1]: not completely dissolved
- binding site on MurD (MurD): binds to the D-Glu binding site
- Ki (MurD from E. coli; substrate ATP varied, fixed D-Glu 100 µM, UMA 80 µM): 18.7 ± 2.6 µM
- Ki (MurD from E. coli; substrate D-Glu varied, fixed ATP 400 µM, UMA 80 µM): 65.5 ± 4.9 µM
- Ki (MurD from E. coli; substrate UMA varied, fixed ATP 400 µM, D-Glu 100 µM): 14.8 ± 11.2 µM
- Inhibition mechanism (MurD from E. coli; versus substrate ATP): Mixed (full)
- Inhibition mechanism (MurD from E. coli; versus substrate D-Glu): Competitive (full)
- Inhibition mechanism (MurD from E. coli; versus substrate UMA): Mixed (partial)
- remaining activity at 100 µM (E. coli MurC; 0.25 h, Table S1, PKIS screening, read-out: RA [%] at 100 µM MurC): 70%
- IC50 (E. coli MurC; Table 1, read-out: MurC IC50): 368 µM
- RA (%) MurC (E. coli MurC; [2]): 70%
- MurC RA [%] (E. coli MurC; [4]): 70%
- remaining activity at 100 µM (E. coli MurD; 0.25 h, Table S1, PKIS screening, read-out: RA [%] at 100 µM MurD): 45%
- IC50 (E. coli MurD; Table 1, read-out: MurD IC50): 104 µM
- LE (MurD) (E. coli MurD; [3]): 0.21
- MurD RA [%] (E. coli MurD; [4]): 45%
